Reference: patent US20260184667A1, “CGMP-COMPLIANT AUTOMATED [18F]FSPG PRODUCTION FOR CLINICAL EXAMINATION” (BOARD OF REGENTS, THE UNIVERSITY OF TEXAS SYSTEM, priority 2022, published 2026)

Legend:
[1] = Radiochemical purity on storage at room temperature (analytical reverse phase-HPLC); format: physicochemical; settings: stored at room temperature, for 5 hours after end of synthesis (FIG. 3)
Description: The radiochemical purity of the [^18F]FSPG composition was tested at the end of synthesis and up to 5 hours after being stored at room temperature. Analytical reverse phase-HPLC was performed on an Agilent 1260 HPLC system equipped with a 1200 Series Diode Array Detector and a Raytest GABI Star NaI (TL) scintillation detector. The following process parameters were used: • Column: Phenomenex Luna C-18 (2) 250 mm×4.6 mm (5 μm) • Mobile Phase A: 40 μM aqueous disodium phosphate • Mobile Phase B: Acetonitrile/Methanol/Water (45:45:10) (% w/v) • Flow rate: 1.5 ml/min • Gradient: • Initial: 100% Mobile Phase A, 0% Mobile Phase B • 2 min: 96% Mobile Phase A, 4% Mobile Phase B • 5 min: 88% Mobile Phase A, 12% Mobile Phase B • 15 min: 88% Mobile Phase A, 12% Mobile Phase B • 20 min: 40% Mobile Phase A, 60% Mobile Phase B • 22 min: 0% Mobile Phase A, 100% Mobile Phase B • 24 min: 0% Mobile Phase A, 100% Mobile Phase B • 25 min: 100% Mobile Phase A, 0% Mobile Phase B • 30 min: 100% Mobile Phase A, 0% Mobile Phase B • Total Run Time: 35 minutes • UV detector: 340 nm • [^18F]FSPG solution (80 μl) was mixed with o-phthaldialdehyde reagent solution (20 μl). The mixture sat for 1 min prior to the HPLC analysis.

[2] = target: T1, cystine/glutamate antiporter (Xc^−) (Homo sapiens, UniProt Q9UPY5); settings: PET; healthy volunteers and patients with non-small cell lung cancer, hepatocellular carcinoma, brain tumors; cited from earlier work
T1 construct: from tissue; host or cells: Human tissues and tumours in vivo (healthy volunteers; patients with NSCLC, hepatocellular carcinoma or brain tumours)
T1 sequence (Q9UPY5 1-501): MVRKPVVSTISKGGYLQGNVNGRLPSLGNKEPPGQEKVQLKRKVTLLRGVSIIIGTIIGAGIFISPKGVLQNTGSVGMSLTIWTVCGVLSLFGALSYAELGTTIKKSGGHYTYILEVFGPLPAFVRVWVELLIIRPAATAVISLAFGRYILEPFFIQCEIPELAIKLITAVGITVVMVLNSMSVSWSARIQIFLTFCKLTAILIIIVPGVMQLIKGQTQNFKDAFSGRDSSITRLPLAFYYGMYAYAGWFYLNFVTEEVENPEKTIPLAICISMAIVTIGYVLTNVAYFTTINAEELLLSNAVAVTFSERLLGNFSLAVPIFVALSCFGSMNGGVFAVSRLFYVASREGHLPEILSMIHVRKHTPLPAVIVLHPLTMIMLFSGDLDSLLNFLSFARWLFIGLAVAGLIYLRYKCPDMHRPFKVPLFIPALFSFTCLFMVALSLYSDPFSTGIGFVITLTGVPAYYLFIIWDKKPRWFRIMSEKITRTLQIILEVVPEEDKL
T1 sequence (P08195 1-529 partner): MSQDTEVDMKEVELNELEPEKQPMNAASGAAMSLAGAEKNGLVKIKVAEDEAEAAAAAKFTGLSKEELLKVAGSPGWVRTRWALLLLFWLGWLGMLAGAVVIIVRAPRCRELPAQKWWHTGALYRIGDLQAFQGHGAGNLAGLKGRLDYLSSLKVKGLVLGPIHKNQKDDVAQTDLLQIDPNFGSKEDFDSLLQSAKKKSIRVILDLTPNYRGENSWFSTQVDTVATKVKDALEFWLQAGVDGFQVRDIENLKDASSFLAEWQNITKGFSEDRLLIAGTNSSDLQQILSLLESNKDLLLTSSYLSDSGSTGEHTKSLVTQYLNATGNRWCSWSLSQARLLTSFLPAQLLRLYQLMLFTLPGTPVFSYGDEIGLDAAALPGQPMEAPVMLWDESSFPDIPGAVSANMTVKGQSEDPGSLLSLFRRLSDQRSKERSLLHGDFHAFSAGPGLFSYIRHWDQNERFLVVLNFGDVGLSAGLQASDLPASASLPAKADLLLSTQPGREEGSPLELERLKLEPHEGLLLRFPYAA

N[C@@H](C[C@H](CCC[18F])C(=O)O)C(=O)O [[^18F]FSPG, (S)-4-(3-^18F-fluoropropyl)-L-glutamic acid]
radiochemical purity maintained [1]: > 95%
background uptake [2]: low background uptake in the brain, lung, and bowel
